pIC50, pKi: −log10 of the molar value. The source made the active and inactive calls. The rule behind the calls is not given here.
Experiments:
Rattus norvegicus [1] = species: Rattus norvegicus; experiment: Activity at UDP-glucuronosyltransferase in Sprague-Dawley rat liver microsomes assessed as morphine conversion to M3G at 50 uM by Michaelis-Menten plot analysis
[2] = (§1) Inhibition of UDP-glucuronosyltransferase in Sprague-Dawley rat liver microsomes assessed as morphine conversion to M3G after 30 mins by HPLC analysis
Rattus norvegicus [3] = species: Rattus norvegicus; experiment: as §1
Rattus norvegicus [4] = species: Rattus norvegicus; experiment: Inhibition of UDP-glucuronosyltransferase in Sprague-Dawley rat liver microsomes assessed as morphine conversion to M6G after 30 mins by HPLC analysis
[5] = Clearance in Sprague-Dawley rat liver microsomes at 50 uM; assay type: ADME; details: read-out: CLH
Hepatocyte [6] = experiment: Inhibition of UDP-glucuronosyltransferase in Sprague-Dawley rat hepatocytes assessed as morphine conversion to M3G at 5 to 40 uM incubated for 72 hrs prior to substrate addition measured after 2 hrs by HPLC analysis; assay type: cell-based
Rattus norvegicus [7] = species: Rattus norvegicus; experiment: Activity at UDP-glucuronosyltransferase in Sprague-Dawley rat liver microsomes assessed as morphine conversion to M3G at 5 uM by Michaelis-Menten plot analysis
Rattus norvegicus [8] = species: Rattus norvegicus; experiment: Activity at UDP-glucuronosyltransferase in Sprague-Dawley rat liver microsomes assessed as morphine conversion to M3G at 1 uM by Michaelis-Menten plot analysis
[9] = Clearance in Sprague-Dawley rat liver microsomes at 2.5 uM; assay type: ADME; details: read-out: CLH
Rattus norvegicus [10] = species: Rattus norvegicus; experiment: Activity at UDP-glucuronosyltransferase in Sprague-Dawley rat liver microsomes assessed as morphine conversion to M3G at 10 uM by Michaelis-Menten plot analysis
[11] = Clearance in Sprague-Dawley rat liver microsomes at 5 uM; assay type: ADME; details: read-out: CLH
[12] = molecular target: Delta-type opioid receptor (Cricetulus griseus) (UniProt G3H1Y1); experiment: Displacement of [3H]DADLE from delta opioid receptor in CHO cells at 1 uM after 120 mins relative to control; assay type: cell-based
Sequence of Delta-type opioid receptor (Cricetulus griseus) (G3H1Y1 as listed by the source): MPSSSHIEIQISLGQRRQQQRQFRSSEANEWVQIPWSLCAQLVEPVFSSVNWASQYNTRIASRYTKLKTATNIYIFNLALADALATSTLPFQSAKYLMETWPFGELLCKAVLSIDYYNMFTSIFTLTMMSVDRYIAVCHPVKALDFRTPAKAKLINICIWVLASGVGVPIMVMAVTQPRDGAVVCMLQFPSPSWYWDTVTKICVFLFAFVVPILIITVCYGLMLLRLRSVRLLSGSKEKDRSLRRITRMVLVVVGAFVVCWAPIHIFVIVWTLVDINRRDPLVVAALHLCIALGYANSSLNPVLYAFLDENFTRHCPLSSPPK

[13] = molecular target: Delta-type opioid receptor (Cricetulus griseus) (UniProt G3H1Y1); experiment: Displacement of [3H]DADLE from delta opioid receptor in CHO cells at 10 uM after 120 mins relative to control; assay type: cell-based
[14] = molecular target: Kappa-type opioid receptor (Cricetulus griseus) (UniProt G3HZR5); experiment: Displacement of [3H]U-69593 from kappa opioid receptor in CHO cells at 10 uM after 120 mins relative to control; assay type: cell-based
Sequence of Kappa-type opioid receptor (Cricetulus griseus) (G3HZR5 as listed by the source): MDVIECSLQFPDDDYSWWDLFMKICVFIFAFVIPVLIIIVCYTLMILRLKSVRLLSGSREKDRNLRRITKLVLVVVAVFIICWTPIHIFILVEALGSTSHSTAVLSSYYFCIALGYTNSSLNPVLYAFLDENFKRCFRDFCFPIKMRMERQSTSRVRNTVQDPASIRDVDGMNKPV

[15] = Clearance in Sprague-Dawley rat liver microsomes at 1 uM; assay type: ADME; details: read-out: CLH
[16] = molecular target: Kappa-type opioid receptor (Cricetulus griseus) (UniProt G3HZR5); experiment: Displacement of [3H]U-69593 from kappa opioid receptor in CHO cells at 1 uM after 120 mins relative to control; assay type: cell-based
[17] = Clearance in Sprague-Dawley rat liver microsomes at 10 uM; assay type: ADME; details: read-out: CLH
[18] = molecular target: Mu-type opioid receptor (Homo sapiens) (UniProt P35372); details: HEK293, at 1 µM
Sequence of Mu-type opioid receptor (Homo sapiens) (P35372 whole entry): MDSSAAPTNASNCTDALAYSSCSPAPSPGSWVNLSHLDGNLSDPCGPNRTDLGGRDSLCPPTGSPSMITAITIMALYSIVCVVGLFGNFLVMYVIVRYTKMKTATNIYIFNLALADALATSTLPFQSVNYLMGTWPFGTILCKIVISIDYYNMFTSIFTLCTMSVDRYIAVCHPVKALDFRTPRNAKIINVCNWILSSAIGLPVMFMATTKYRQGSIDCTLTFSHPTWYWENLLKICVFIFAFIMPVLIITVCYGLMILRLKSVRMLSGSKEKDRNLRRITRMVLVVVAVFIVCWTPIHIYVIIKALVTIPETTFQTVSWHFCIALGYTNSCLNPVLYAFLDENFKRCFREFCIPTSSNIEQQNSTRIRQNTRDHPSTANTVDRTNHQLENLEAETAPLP
Description: Displacement of [3H]diprenorphine from mu opioid receptor in HEK293 cells at 1 uM after 120 mins relative to control

Rattus norvegicus [19] = species: Rattus norvegicus; experiment: Activity at UDP-glucuronosyltransferase in Sprague-Dawley rat liver microsomes assessed as morphine conversion to M3G at 2.5 uM by Michaelis-Menten plot analysis
[20] = molecular target: Mu-type opioid receptor (Homo sapiens) (UniProt P35372); details: HEK293, at 10 µM
Description: Displacement of [3H]diprenorphine from mu opioid receptor in HEK293 cells at 10 uM after 120 mins relative to control

Rattus norvegicus [21] = species: Rattus norvegicus; experiment: Competitive inhibition of UDP-glucuronosyltransferase in Sprague-Dawley rat liver microsomes assessed as morphine conversion to M3G up to 5 uM by Lineweaver-Burk plot analysis
Rattus norvegicus [22] = species: Rattus norvegicus; experiment: Inhibition of UDP-glucuronosyltransferase in Sprague-Dawley rat liver microsomes assessed as morphine conversion to M3G up to 50 uM after 30 mins by HPLC analysis relative to control
Hepatocyte [23] = experiment: Inhibition of UDP-glucuronosyltransferase in Sprague-Dawley rat hepatocytes assessed as morphine conversion to M3G at 5 to 10 uM incubated for 72 hrs prior to substrate addition measured after 2 hrs by HPLC analysis; assay type: cell-based
[24] = Inhibition of UDP-glucuronosyltransferase in Sprague-Dawley rat hepatocytes assessed as morphine conversion to M3G incubated for 72 hrs prior to substrate addition measured after 2 hrs by HPLC analysis; assay type: cell-based; details: Hepatocyte

Row | Structure (SMILES) | Km (Rattus norvegicus [1]) [µM] | Vmax (Rattus norvegicus [1]) [nmol/min/mg] | pIC50 [2] | pKi [2] | inhibition (Rattus norvegicus [3]) | inhibition (Rattus norvegicus [4]) | microsomal CLint at 50 µM [5] [µL/min/mg] | Km (Rattus norvegicus [7]) [µM] | Vmax (Rattus norvegicus [7]) [nmol/min/mg] | Km (Rattus norvegicus [8]) [µM] | Vmax (Rattus norvegicus [8]) [nmol/min/mg] | microsomal CLint at 2.5 µM [9] [µL/min/mg] | Km (Rattus norvegicus [10]) [µM] | Vmax (Rattus norvegicus [10]) [nmol/min/mg] | inhibition [12] [%] | inhibition [13] [%] | inhibition [14] [%] | inhibition [16] [%] | inhibition [18] [%] | inhibition [20] [%] | other results
1 | COc1ccc2c3c1O[C@H]1[C@@H](OC(=O)C(C)(C)C)C=C[C@H]4[C@@H](C2)N(C)CC[C@@]341 | 0.62 | 3.95 | 5.64 | 5.59 | Dose-dependent effect | inactive | 6.54 | 0.36 | 4.53 | 0.13 | 7.03 | 29.1 | 0.72 | 4.63 | 57 | 90 | 42 | 6 | 20 | 38 | inhibition (Hepatocyte [6]): Active; microsomal CLint at 5 µM [11]: 12.7 µL/min/mg; microsomal CLint at 1 µM [15]: 52.7 µL/min/mg; microsomal CLint at 10 µM [17]: 6.88 µL/min/mg; Km (Rattus norvegicus [19]): 0.22 µM; Vmax (Rattus norvegicus [19]): 6.28 nmol/min/mg
2 | COc1ccc2c3c1O[C@H]1[C@@H](OC(C)=O)C=C[C@H]4[C@@H](C2)N(C)CC[C@@]341 | 0.69 | 4.01 | 5.49 | 5.29 | Dose-dependent effect | inactive | 5.97 | 0.56 | 7.92 | 0.26 | 9.74 | 24.7 | 0.35 | 3.31 | 18 | 60 | 66 | 25 | 19 | 43 | inhibition (Rattus norvegicus [21]): inactive; inhibition (Hepatocyte [6]): Active; microsomal CLint at 5 µM [11]: 25 µL/min/mg; microsomal CLint at 1 µM [15]: 37.8 µL/min/mg; microsomal CLint at 10 µM [17]: 9.38 µL/min/mg; Km (Rattus norvegicus [19]): 0.41 µM; Vmax (Rattus norvegicus [19]): 10.1 nmol/min/mg
3 | CCCCCCCCCCCC(=O)O[C@H]1C=C[C@H]2[C@H]3Cc4ccc(OC)c5c4[C@@]2(CCN3C)[C@H]1O5 | – | – | – | – | – | inactive | – | – | – | – | – | – | – | – | -7 | 13 | 40 | 8 | 0 | 12 | inhibition (Rattus norvegicus [22]): Active
4 | COc1ccc2c3c1O[C@H]1[C@@H](OC(C)=O)CC[C@H]4[C@@H](C2)N(C)CC[C@@]341 | – | – | – | – | – | inactive | – | – | – | – | – | – | – | – | -10 | – | 13 | 3 | -2 | 5 | inhibition (Rattus norvegicus [22]): Active; inhibition (Hepatocyte [23]): inactive
5 | CN1CC[C@]23c4c5ccc(O)c4O[C@H]2[C@@H](O)C=C[C@H]3[C@H]1C5 | – | – | – | – | – | – | – | – | – | – | – | – | – | – | 72 | 95 | 100 | 95 | – | – | –
6 | COc1ccc2c3c1O[C@H]1[C@@H](O)CC[C@H]4[C@@H](C2)N(C)CC[C@@]341 | – | – | – | – | – | inactive | – | – | – | – | – | – | – | – | 7 | 24 | 51 | 4 | 17 | 40 | inhibition (Rattus norvegicus [22]): 40%; inhibition (Hepatocyte [23]): inactive
7 | COc1ccc2c3c1O[C@H]1[C@@H](O)C=C[C@H]4[C@@H](C2)N(C)CC[C@@]341 [CODEINE] | 0.48 | 4.06 | 5.36 | 5.16 | Dose-dependent effect | inactive | 8.35 | 0.43 | 8.04 | 0.26 | 12.5 | 31.1 | 0.37 | 4.41 | – | – | – | – | – | – | inhibition (Rattus norvegicus [21]): inactive; microsomal CLint at 5 µM [11]: 18.6 µL/min/mg; microsomal CLint at 1 µM [15]: 48 µL/min/mg; microsomal CLint at 10 µM [17]: 11.9 µL/min/mg; pIC50 [24]: 4.68; Km (Rattus norvegicus [19]): 0.41 µM; Vmax (Rattus norvegicus [19]): 12.4 nmol/min/mg

Source: ChEMBL document CHEMBL3091304 (Bioorg Med Chem, 2013)
